Test results reported in ChEMBL document CHEMBL1201862, “PubChem BioAssay data set” (2004).
Blank lines part the entries; values can stand above or below the compound they belong to. The source made the active and inactive calls.

How the values were obtained:
[1] = biological target: T1, DNA repair protein RAD52 homolog (Homo sapiens, UniProt P43351); assay type: functional, biochemical
T1 sequence (P43351 whole entry): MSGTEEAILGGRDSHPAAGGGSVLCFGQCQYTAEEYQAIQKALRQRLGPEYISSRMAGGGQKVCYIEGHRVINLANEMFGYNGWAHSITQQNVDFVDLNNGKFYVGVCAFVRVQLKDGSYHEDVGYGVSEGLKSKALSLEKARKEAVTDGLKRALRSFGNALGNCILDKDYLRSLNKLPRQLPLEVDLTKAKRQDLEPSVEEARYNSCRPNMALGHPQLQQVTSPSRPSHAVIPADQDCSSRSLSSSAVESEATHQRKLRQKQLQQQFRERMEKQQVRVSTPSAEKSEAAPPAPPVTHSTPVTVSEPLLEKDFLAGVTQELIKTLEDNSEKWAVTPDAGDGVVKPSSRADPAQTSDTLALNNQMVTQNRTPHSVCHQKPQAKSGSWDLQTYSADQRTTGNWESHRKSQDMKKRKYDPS

[2] = biological target: Beta-2 adrenergic receptor (Homo sapiens, UniProt P07550); assay: ADRB2 activation measured by internalization – cell-based, FAP fluorogen, flow cytometry, cherry pick 1, dose response (AID 588763); assay type: functional
Beta-2 adrenergic receptor, sequence (P07550 whole entry): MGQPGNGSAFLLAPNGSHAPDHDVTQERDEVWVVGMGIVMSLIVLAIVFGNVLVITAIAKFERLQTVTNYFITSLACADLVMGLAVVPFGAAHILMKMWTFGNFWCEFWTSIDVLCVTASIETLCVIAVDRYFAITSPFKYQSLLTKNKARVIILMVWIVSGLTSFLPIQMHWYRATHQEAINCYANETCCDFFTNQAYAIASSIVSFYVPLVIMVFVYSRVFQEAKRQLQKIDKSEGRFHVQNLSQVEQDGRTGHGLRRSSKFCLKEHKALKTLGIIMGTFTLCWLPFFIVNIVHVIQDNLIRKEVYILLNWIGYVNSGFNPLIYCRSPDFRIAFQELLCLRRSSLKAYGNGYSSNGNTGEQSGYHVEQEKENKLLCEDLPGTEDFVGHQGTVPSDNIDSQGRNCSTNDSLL

[3] = HEK-293T viability loss after treatment – luminescence, T-cell screen hits, cytotoxicity control for TCR NF-kB inhibitor project, dose response (AID 489026); assay type: functional, cell-based;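 also: cells exposed to compound about 14 hours before the viability readout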
[4] = P. falciparum Dd2 growth inhibitors, dose response, SYBR Green, cherry-picked samples (AID 1159567); assay type: functional, cell-based
[5] = toxicity to human hepatoma HepG2 cells – cell-based, cherry-picked samples, cytotoxicity control, dose response (AID 1159577); assay type: functional
[6] = general cell-killing toxicity readout – plate reader, dry powder samples, cytotoxicity control for PAX8 inhibitor project, dose response (AID 743021); assay type: functional, cell-based
[7] = biological target: Paired box protein Pax-8 (Homo sapiens, UniProt Q06710); assay: PAX8 transcriptional activity inhibition in RMG-I – RMG-I cells, luciferase, cherry-pick, dose response (AID 687027); assay type: functional, cell-based;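 also: luciferase reporter driven by Pax8 target thyroperoxidase promoter measured by SteadyGlo luminescence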
Paired box protein Pax-8, sequence (Q06710 whole entry): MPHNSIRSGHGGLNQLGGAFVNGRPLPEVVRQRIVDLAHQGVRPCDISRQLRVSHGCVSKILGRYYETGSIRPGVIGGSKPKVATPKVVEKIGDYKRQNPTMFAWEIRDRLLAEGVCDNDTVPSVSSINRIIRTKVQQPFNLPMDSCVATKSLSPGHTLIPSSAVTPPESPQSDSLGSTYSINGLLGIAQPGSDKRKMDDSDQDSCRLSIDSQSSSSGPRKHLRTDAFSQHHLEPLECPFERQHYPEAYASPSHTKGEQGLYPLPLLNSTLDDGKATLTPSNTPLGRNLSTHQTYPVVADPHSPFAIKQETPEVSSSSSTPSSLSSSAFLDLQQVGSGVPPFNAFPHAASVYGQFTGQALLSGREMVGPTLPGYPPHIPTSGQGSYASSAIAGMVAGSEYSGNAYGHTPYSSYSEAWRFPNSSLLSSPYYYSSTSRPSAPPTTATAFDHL

[8] = biological target: T2, Calpain-2 catalytic subunit (Sus scrofa, UniProt P43367); assay: m-calpain protease blockers, concentration series – biochemical, fluorogenic peptide substrate, dose response (AID 1420); assay type: functional
T2 sequence (P43367 whole entry): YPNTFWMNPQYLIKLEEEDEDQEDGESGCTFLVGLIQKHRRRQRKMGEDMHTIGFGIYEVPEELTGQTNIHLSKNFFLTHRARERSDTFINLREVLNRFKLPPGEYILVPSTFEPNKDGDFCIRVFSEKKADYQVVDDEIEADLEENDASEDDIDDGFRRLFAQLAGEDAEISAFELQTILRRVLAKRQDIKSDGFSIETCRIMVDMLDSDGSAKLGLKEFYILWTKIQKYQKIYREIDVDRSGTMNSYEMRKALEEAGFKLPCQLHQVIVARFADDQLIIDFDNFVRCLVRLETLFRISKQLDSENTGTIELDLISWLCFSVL

[9] = blockers of HIV-1 envelope-mediated cell-cell fusion – cherry-pick, dose response (AID 652057); assay type: functional, cell-based
[10] = off-target signal loss in HeLa-CEM21 co-culture – HeLa F-luc CTL cells, cherry-picked, counter-screen for HIV-1 Env fusion inhibitor project, dose response (AID 652040); assay type: functional, cell-based;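 also: potency for signal decrease marking cytotoxic or nonspecific inhibition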
[11] = HIV-1 AD8 envelope cell-cell fusion blockers – cherry-pick, dose response (AID 652062); assay type: functional, cell-based;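 also: luciferase signal from cell-cell fusion driven by HIV-1 clade B AD8 Env; potency is for inhibitors of fusion seen as a drop in luminescence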
[12] = biological target: T3, High affinity choline transporter 1 (Homo sapiens, UniProt Q9GZV3); assay: human choline transporter blockers, potency – cell-based, 5-point CRC, membrane potential dye, dose response (AID 504840); assay type: functional
T3 sequence (Q9GZV3 whole entry): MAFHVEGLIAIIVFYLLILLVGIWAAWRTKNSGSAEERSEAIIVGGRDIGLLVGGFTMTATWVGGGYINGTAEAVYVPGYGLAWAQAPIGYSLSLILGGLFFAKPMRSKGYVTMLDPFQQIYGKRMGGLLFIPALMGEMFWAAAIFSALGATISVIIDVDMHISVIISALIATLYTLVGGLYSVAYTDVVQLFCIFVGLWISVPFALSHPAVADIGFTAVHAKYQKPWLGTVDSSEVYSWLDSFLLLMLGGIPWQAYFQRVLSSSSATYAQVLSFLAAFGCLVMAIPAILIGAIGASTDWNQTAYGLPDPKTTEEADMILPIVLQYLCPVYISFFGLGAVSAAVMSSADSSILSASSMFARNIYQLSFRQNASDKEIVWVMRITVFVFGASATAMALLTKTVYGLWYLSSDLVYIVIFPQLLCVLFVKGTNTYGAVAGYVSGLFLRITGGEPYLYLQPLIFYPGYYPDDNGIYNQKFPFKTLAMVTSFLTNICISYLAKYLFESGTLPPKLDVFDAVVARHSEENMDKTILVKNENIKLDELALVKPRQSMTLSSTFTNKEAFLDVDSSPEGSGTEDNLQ

[13] = biological target: T3, High affinity choline transporter 1; assay: human choline transporter blockers, potency – cell-based, 10-point CRC, membrane potential dye, dose response (AID 588401); assay type: functional;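 also: membrane potential dye fluorescence of choline-evoked depolarization via CHT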
[14] = blockers of HIV-1 ZM109 envelope-driven cell-cell fusion – HeLa effector, CEM target cells, luciferase, cherry-pick, dose response (AID 652058); assay type: functional, cell-based;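 also: luciferase signal from HIV-1 Env mediated cell-cell fusion of effector and target cells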

Structure (SMILES): COc1ccc(C(=O)c2ccc(N(C)C)cc2)c(OC)c1
IC50 [3]: > 80 µM (inactive)

Structure (SMILES): COc1ccc2c3c(n(C)c2c1)[C@@H](CO)N(Cc1ccc(F)cc1)CC31CCN(CC2CC2)CC1
AC50 [4]: 3.48 µM (active) | AC50 [5]: > 39 µM (inactive)

Structure (SMILES): O=C(Cc1ccccn1)N1CCCCN2[C@@H](CO)[C@@H](c3ccc(-c4ccccc4F)cc3)[C@@H]2C1
AC50 [6]: 46.2 µM (active) | AC50 [7]: 57 µM (active)

Structure (SMILES): CCCN(C)C[C@H]1Oc2ncc(C#Cc3ccc(OC)cc3)cc2C(=O)N([C@@H](C)CO)C[C@H]1C
AC50 [4]: 2.78 µM (active) | AC50 [5]: 28.8 µM (active)

Structure (SMILES): Nc1cc(-c2ccccc2)nn1S(=O)(=O)c1ccc(F)cc1
AC50 [9]: 59.6 µM (active) | AC50 [10]: 3.4 µM (active) | AC50 [11]: 3.99 µM (active)

Structure (SMILES): COc1cccc(S(=O)(=O)Nc2ccc3c(c2)[C@@H]2C[C@H](CC(=O)NCc4ccccc4F)O[C@@H](CO)[C@@H]2O3)c1
AC50 [4]: 5.32 µM (active) | AC50 [5]: > 39 µM (inactive)

Structure (SMILES): CCC(=O)N(C)C[C@@H]1Oc2cc(C#Cc3ccccc3)ccc2S(=O)(=O)N([C@H](C)CO)C[C@H]1C
AC50 [9]: 7.15 µM (active) | AC50 [11]: 54.8 µM (active) | AC50 [14]: 1.58 µM (active)

The remaining lines, values ahead:

AC50 [1]: 7.9 µM (active)
Structure (SMILES): CN(C)CCCNc1nc2cc(-c3cccc(C(F)(F)F)c3)sc2c(=O)n1C

EC50 [2]: 4.36 µM (active)
Structure (SMILES): COc1ccc([C@H]2/C=C\CN(Cc3ccc(N(C)C)cc3)[C@@H](C)C(=O)N2Cc2ccc(F)cc2)cc1

AC50 [1]: 12.1 µM (active)
Structure (SMILES): NC1(N2SC(S)=C3CCCC=C32)CCCCC1

EC50 [2]: 0.402 µM (active) | IC50 [8]: > 50 µM (not active)
Structure (SMILES): CC(=O)Nc1cc(C(=O)OC(C(=O)c2ccccc2)c2ccccc2)ccc1C (stereo not given)

IC50 [12]: 9.77 µM (active) | IC50 [13]: 5.77 µM (active)
Structure (SMILES): Cc1ccccc1NC(=O)c1ccc(C)c(S(=O)(=O)NCc2cccnc2)c1

IC50 [12]: 6.99 µM (active) | IC50 [13]: 4.22 µM (active)
Structure (SMILES): Cn1c2c(c(=O)c3ccccc31)CCCC2

AC50 [1]: 16.5 µM (active)
Structure (SMILES): C=CC[N@@+]12CC[C@]34c5ccccc5N5/C=C6\C7N(/C=C(\C53)[C@@H](C[C@@H]41)/C(=C/CO)C2)c1ccccc1[C@@]71CC[N@@+]2(CC=C)C/C(=C\CO)[C@@H]6C[C@@H]12 (stereo not given in full)
